Measured values as given in patent US9708314B2, “Heterocyclic amide compound” (NISSAN CHEMICAL INDUSTRIES, LTD., priority 2013, dated 2017).

What was measured:
Assay type in all cases: in vivo
[1] = system: Echinochloa oryzacola Vasing.; assay: Test Example 2: herbicidal activity, application during weed generation in submerged conditions; settings: Eighteenth Table; application herbicide amount 320 g/ha
Procedure, shortened: (§1)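 Seeds were sown together in alluvial soil kept under 4 cm of water and grown at 25 °C to 30 °C. Once plants reached the one- to two-leaf stage, the diluted emulsion was applied to the water surface at a predetermined g/ha amount, and effects were rated 0–5 after three weeks.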

Monochoria vaginalis = assay: as above; settings: Eighteenth Table; application herbicide amount 320 g/ha
Procedure, shortened: as §1

Scirpus juncoides = assay: as above; settings: Eighteenth Table; application herbicide amount 320 g/ha
Procedure, shortened: as §1

[2] = system: Beta vulgaris ssp. vulgaris; assay: Test Example 4: effect on crop by application to foliage (diluvial soil, plastic box); settings: for f: Application herbicide amount 320 g/ha, effect on crop; for f (Beta vulgaris ssp. vulgaris) effect on crop: application to foliage, application herbicide amount 320 g/ha
Procedure, shortened: (§2)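 Greenhouse plants (25° C. to 30° C., 14 d, diluvial soil) receive a foliar spray of water-diluted emulsifiable formulation at defined g/ha. Grading after 3 weeks uses a six-step herbicidal-ratio scale, with 4 covering 70% to <90% and 1 covering 5% to <20%.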

Brassica campestris L. = assay: as above; settings: for g: Application herbicide amount 320 g/ha, effect on crop; for g (Brassica campestris L.) effect on crop: application to foliage, application herbicide amount 320 g/ha
Procedure, shortened: as §2

Glycine max = assay: as above; settings: for c: Application herbicide amount 320 g/ha, effect on crop; for c (Glycine max) effect on crop: application to foliage, application herbicide amount 320 g/ha
Procedure, shortened: as §2

Triticum aestivum = assay: as above; settings: for e: Application herbicide amount 320 g/ha, effect on crop; for e (Triticum aestivum) effect on crop: application to foliage, application herbicide amount 320 g/ha
Procedure, shortened: as §2

Zea mays = assay: as above; settings: for b: Application herbicide amount 320 g/ha, effect on crop; for b (Zea mays) effect on crop: application to foliage, application herbicide amount 320 g/ha
Procedure, shortened: as §2

[3] = system: directly sowed Oryza sativa; assay: as above; settings: for d: Application herbicide amount 320 g/ha, effect on crop; for d (directly sowed Oryza sativa) effect on crop: application to foliage, application herbicide amount 320 g/ha
Procedure, shortened: as §2

CSC(C)c1nnc2c(C(=O)Nc3nnc(C)o3)ccc(C(F)(F)F)n12 (stereo not drawn) [1-078]
A (Echinochloa oryzicola Vasing.) herbicidal ratio grade [1]: 4 (Herbicidal ratio of 70% or more and less than 90%)
C (Monochoria vaginalis) herbicidal ratio grade (Monochoria vaginalis): 3 (Herbicidal ratio of 40% or more and less than 70%)
B (Scirpus juncoides) herbicidal ratio grade (Scirpus juncoides): 3 (Herbicidal ratio of 40% or more and less than 70%)
f [2]: 5 (Herbicidal ratio of 90% or more (almost completely withered))
g (Brassica campestris L.): 4 (Herbicidal ratio of 70% or more and less than 90%)
c (Glycine max): 4 (Herbicidal ratio of 70% or more and less than 90%)
e (Triticum aestivum): 4 (Herbicidal ratio of 70% or more and less than 90%)
b (Zea mays): 4 (Herbicidal ratio of 70% or more and less than 90%)
d [3]: 4 (Herbicidal ratio of 70% or more and less than 90%)

Cc1nnc(NC(=O)c2ccc(C(F)(F)F)n3c(C(C)S(C)(=O)=O)nnc23)o1 (stereo not drawn) [1-080]
A (Echinochloa oryzicola Vasing.) herbicidal ratio grade [1]: 5 (Herbicidal ratio of 90% or more (almost completely withered))
C (Monochoria vaginalis) herbicidal ratio grade (Monochoria vaginalis): 4 (Herbicidal ratio of 70% or more and less than 90%)
B (Scirpus juncoides) herbicidal ratio grade (Scirpus juncoides): 3 (Herbicidal ratio of 40% or more and less than 70%)
f [2]: 5 (Herbicidal ratio of 90% or more (almost completely withered))
g (Brassica campestris L.): 5 (Herbicidal ratio of 90% or more (almost completely withered))
c (Glycine max): 4 (Herbicidal ratio of 70% or more and less than 90%)
e (Triticum aestivum): 5 (Herbicidal ratio of 90% or more (almost completely withered))
b (Zea mays): 4 (Herbicidal ratio of 70% or more and less than 90%)
d [3]: 5 (Herbicidal ratio of 90% or more (almost completely withered))

CC(C)c1nnc2c(C(=O)Nc3nnc(C4CC4)o3)ccc(C(F)(F)F)n12 [1-051]
A (Echinochloa oryzicola Vasing.) herbicidal ratio grade [1]: 4 (Herbicidal ratio of 70% or more and less than 90%)
C (Monochoria vaginalis) herbicidal ratio grade (Monochoria vaginalis): 4 (Herbicidal ratio of 70% or more and less than 90%)
B (Scirpus juncoides) herbicidal ratio grade (Scirpus juncoides): 3 (Herbicidal ratio of 40% or more and less than 70%)
f (Beta vulgaris ssp. vulgaris) effect on crop [2]: 3 (Herbicidal ratio of 40% or more and less than 70%)
g (Brassica campestris L.) effect on crop (Brassica campestris L.): 1 (Herbicidal ratio of 5% or more and less than 20%)
c (Glycine max) effect on crop (Glycine max): 0 (Herbicidal ratio of 5% or less (almost no effect))
e (Triticum aestivum) effect on crop (Triticum aestivum): 1 (Herbicidal ratio of 5% or more and less than 20%)
b (Zea mays) effect on crop (Zea mays): 0 (Herbicidal ratio of 5% or less (almost no effect))
d (directly sowed Oryza sativa) effect on crop [3]: 1 (Herbicidal ratio of 5% or more and less than 20%)

Cc1nnc(NC(=O)c2ccc(C(F)(F)F)n3c(C[S+](C)[O-])nnc23)o1 (stereo not drawn) [1-036]
A (Echinochloa oryzicola Vasing.) herbicidal ratio grade [1]: 3 (Herbicidal ratio of 40% or more and less than 70%)
C (Monochoria vaginalis) herbicidal ratio grade (Monochoria vaginalis): 4 (Herbicidal ratio of 70% or more and less than 90%)
B (Scirpus juncoides) herbicidal ratio grade (Scirpus juncoides): 2 (Herbicidal ratio of 20% or more and less than 40%)
f (Beta vulgaris ssp. vulgaris) effect on crop [2]: 5 (Herbicidal ratio of 90% or more (almost completely withered))
g (Brassica campestris L.) effect on crop (Brassica campestris L.): 5 (Herbicidal ratio of 90% or more (almost completely withered))
c (Glycine max) effect on crop (Glycine max): 3 (Herbicidal ratio of 40% or more and less than 70%)
e (Triticum aestivum) effect on crop (Triticum aestivum): 3 (Herbicidal ratio of 40% or more and less than 70%)
b (Zea mays) effect on crop (Zea mays): 3 (Herbicidal ratio of 40% or more and less than 70%)
d (directly sowed Oryza sativa) effect on crop [3]: 4 (Herbicidal ratio of 70% or more and less than 90%)
